# Legend:
# PKCδ = PKCδ (Homo sapiens, UniProt Q05655); assay: lidocaine binding to and modulation of PKCδ (applicant's discovery, no method given); assay type: biochemical; details: calcium independent PKC isozyme PKCδ; qualitative statement
# [1] = tested on: calcium-activated, phospholipid-dependent protein kinase (PKC); details: data suggesting; M. K. Tomoda et al., 1990; cited from earlier work
# Chain of PKCδ (Q05655 whole entry): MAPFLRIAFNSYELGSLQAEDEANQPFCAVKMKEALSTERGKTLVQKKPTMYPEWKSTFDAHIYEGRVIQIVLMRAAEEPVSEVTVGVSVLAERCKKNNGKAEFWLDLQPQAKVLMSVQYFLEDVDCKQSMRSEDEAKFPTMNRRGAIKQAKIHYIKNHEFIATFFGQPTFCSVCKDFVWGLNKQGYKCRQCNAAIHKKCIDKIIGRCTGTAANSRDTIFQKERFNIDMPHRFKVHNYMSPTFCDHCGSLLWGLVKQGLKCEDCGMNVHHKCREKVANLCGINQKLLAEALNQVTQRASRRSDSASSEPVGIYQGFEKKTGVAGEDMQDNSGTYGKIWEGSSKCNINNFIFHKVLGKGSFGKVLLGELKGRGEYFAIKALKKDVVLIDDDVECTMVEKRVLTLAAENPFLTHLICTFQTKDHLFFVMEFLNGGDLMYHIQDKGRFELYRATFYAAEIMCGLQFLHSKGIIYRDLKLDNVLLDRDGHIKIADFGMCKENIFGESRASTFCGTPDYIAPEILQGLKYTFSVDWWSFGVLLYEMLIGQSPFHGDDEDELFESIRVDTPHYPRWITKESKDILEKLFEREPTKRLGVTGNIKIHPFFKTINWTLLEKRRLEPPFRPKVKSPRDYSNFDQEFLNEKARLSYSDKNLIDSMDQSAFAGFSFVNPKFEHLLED
smiles,measurement,setting,value
"CCN(CC)CC(=O)Nc1c(C)cccc1C [lidocaine, (2-diethylamino)-N-(2,6-dimethylphenyl)-acetamide]",binding to and modulation of the effects of PKCδ,PKCδ,binds to and modulates (e.g. inhibits)
same,"inhibition of calcium-activated, phospholipid-dependent protein kinase (PKC)",[1],inhibits

# Source: patent publication US6391888B1, “Topical anesthetics useful for treating cancer” (Mayo Foundation for Medical Education and Research, priority 1999, dated 2002)
